Like-named read-outs stand apart in the source and are kept apart here. Blank lines part the entries; values can stand above or below the compound they belong to.
Experiments:
CPC-AH B [1] = molecular target: T1, CPC-AH B (Hapsidospora chrysogena, UniProt A0A086SV17); assay: Effect of metals and inhibitors on CPC-AH B activity (HPLC test of DAC formation from CPC); type: biochemical, Acremonium chrysogenum
extracellular CPC-AH = conditions: cited from earlier work
CPC-AH B [2] = molecular target: T1, CPC-AH B; assay: In-vitro deacetylation by enzymatic extracts from E. coli JM109(DE3)/pT7B2.2 (processed CPC-AH B); type: biochemical, Acremonium chrysogenum; conditions: substrate 20 mM, 60 minutes at 37° C.
[3] = final concentration of the ions 1 mM
[4] = metals 1 mM, pre-incubated 15 minutes at 4° C., NONE = 100

T1 sequence (A0A086SV17 107-383): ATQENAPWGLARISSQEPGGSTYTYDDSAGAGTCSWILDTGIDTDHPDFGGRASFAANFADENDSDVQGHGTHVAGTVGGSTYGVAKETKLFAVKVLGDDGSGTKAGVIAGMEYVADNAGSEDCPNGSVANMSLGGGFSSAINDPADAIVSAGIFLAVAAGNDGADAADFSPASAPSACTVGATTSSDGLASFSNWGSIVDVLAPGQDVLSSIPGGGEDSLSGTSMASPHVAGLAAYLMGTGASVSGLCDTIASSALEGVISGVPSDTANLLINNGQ

Compound: O=S(=O)(F)Cc1ccccc1 [PMSF, phenylmethylsulphonyl fluoride]
Effect of inhibitor on CPC-AH B activity (CPC-AH B [1]): strong inhibitory effect

CPC-AH activity (%) (CPC-AH B [1]; inhibitor 0.1 mM, NONE = 100): 91% | CPC-AH activity (%) (CPC-AH B [1]; inhibitor 1 mM, NONE = 100): 87% | CPC-AH activity (%) (CPC-AH B [1]; inhibitor 10 mM, NONE = 100): 86%
Compound: O=C(O)CN(CCN(CC(=O)O)CC(=O)O)CC(=O)O [EDTA]

Compound: [Cl-].[Na+] [NaCl]
CPC-AH activity (%) (CPC-AH B [1]): 94%

Compound: CC(=O)OCC1=C(C(=O)O)N2C(=O)[C@@H](NC(=O)CCC[C@@H](N)C(=O)O)[C@H]2SC1 [CPC, cephalosporin C]
Km (extracellular CPC-AH): 20 mM | Deacetylation of substrate (CPC-AH B [2]): detected appearance of the corresponding deacetylated derivatives

Compound: CaCl2
CPC-AH activity (%) (CPC-AH B [1]): 147% | Effect of metal ion on CPC-AH B activity (CPC-AH B [1]): stimulating effect

CPC-AH activity (%) (CPC-AH B [1]; [4]): 60%
Compound: O=S(=O)([O-])[O-].[Zn+2] [ZnSO4]
Effect of metal ion on CPC-AH B activity (CPC-AH B [1]; [3]): inhibit activity to a greater or lesser extent

Compound: AgNO3
CPC-AH activity (%) (CPC-AH B [1]): 60% | Effect of metal ion on CPC-AH B activity (CPC-AH B [1]): inhibit activity to a greater or lesser extent

CPC-AH activity (%) (CPC-AH B [1]; [4]): 77%
Compound: O=C([O-])[O-].[K+].[K+] [K2CO3]

Effect of metal ion on CPC-AH B activity (CPC-AH B [1]; [3]): stimulating effect | CPC-AH activity (%) (CPC-AH B [1]; [4]): 140%
Compound: O=S(=O)([O-])[O-].[Mn+2] [MnSO4]

Effect of metal ion on CPC-AH B activity (CPC-AH B [1]; [3]): stimulating effect | CPC-AH activity (%) (CPC-AH B [1]; [4]): 141%
Compound: O=S(=O)([O-])[O-].[Mg+2] [MgSO4]

Compound: CC(=O)OCC1=C(C(=O)O)N2C(=O)[C@@H](N)[C@H]2SC1 [7-ACA, 7-aminocephalosporanic acid]
Deacetylation of substrate (CPC-AH B [2]): detected appearance of the corresponding deacetylated derivatives

Compound: CuSO4
CPC-AH activity (%) (CPC-AH B [1]): 64% | Effect of metal ion on CPC-AH B activity (CPC-AH B [1]): inhibit activity to a greater or lesser extent

CPC-AH activity (%) (CPC-AH B [1]; [4]): 49%
Compound: O=S(=O)([O-])[O-].[Fe+2] [FeSO4]
Effect of metal ion on CPC-AH B activity (CPC-AH B [1]; [3]): inhibit activity to a greater or lesser extent

Compound: CoSO4
CPC-AH activity (%) (CPC-AH B [1]): 80%
